Measurements taken from patent US20260315372A1, “INJECTABLE PHARMACEUTICAL FORMULATIONS” (priority 2023, published 2026).
Where two headings read alike, the source gives them in different places.

Tests used:
[1] = in vivo; cited from earlier work
5-HT2A receptor = settings: cited from earlier work
sigma-1 receptor = settings: cited from earlier work
[2] = test system: 5-hydroxytryptamine-(5-HT)1A; settings: cited from earlier work
[3] = test system: trace amine-associated receptors (TAARs); settings: cited from earlier work
[4] = test system: serotonin transporter (SERT); settings: cited from earlier work
in vivo [5] = settings: dog, sc, 0.5 mg/kg; for Vd/F: Vz/F (mean)
[6] = cited from earlier work
[7] = dog, in vivo, sc
5-HT2C = settings: cited from earlier work
5-HT2A = settings: cited from earlier work
in vivo [8] = assay: in vivo; design: species or system male Beagle dogs; settings: dog
Excerpt: A: Proof of Concept—Pharmacokinetics (PK) of DMT-d10 in Male Beagle Dogs Following Subcutaneous Administration in Saline or Sodium Hyaluronate
The objective of this study was to determine if a 1% (w/v) sodium hyaluronate formulation could modify the SC release of DMT-d10 compared to 0.9% (w/v) saline formulation.
Animals. Three, non-naïve, male Beagle dogs aged ca 2-5 years and weighing 10-15 kg at dosing were supplied by Charles River for use on this study and were bred for use in scientific procedures. The animal work in this study was conducted under the UK Home Office Project License No. PPL PP9376768, Pharmacokinetics of Pharmaceuticals. This was a cross-over design study to reduce the number of dogs in use and as well as decrease interindividual variability.
Housing. Animals were uniquely identified by microchip and tattoo in this study. During pre-trial and on-study periods, the animals were group housed in caging appropriate to the species. The animals were housed singly for up to 4 h per day and during this time had access to their daily ration of diet.
IPS 5007 diet was provided as a daily ration throughout the study. A 350 g ration of feed per dog was provided once daily, except during designated procedures. On the morning of dosing (pre-dose), the animals were deprived from their daily food allowance until 2 h post dose. Mains quality tap water was available ad libitum. Details of diet and water are maintained at the test facility.
(§1) Prior to acceptance for use on study, animals were subject to an examination and the results found to be satisfactory. All animals were weighed prior to each dose administration and the bodyweights recorded. Animals were checked regularly throughout the duration of the study. Any clinical signs were closely monitored and recorded.
Test Items. DMT-d10 fumarate was formulated as a solution in 0.9% (w/v) saline, pH 5.5-6 (control) or in 1% (w/v, nominal) sodium hyaluronate in water for injection (WFI) (Formulation 28) at a free base concentration of 0.4 mg/mL (nominal) for SC injection. Each test item was prepared on the morning of dose administration and stored at ambient temperature, protected from light, until dosing.
Control (0.9% w/v saline): On the day prior to dosing, DMT-d10 fumarate was removed from storage (frozen, in a freezer set to maintain ≤−20° C., protected from light) and allowed to equilibrate to room temperature. Using a precision analytical balance, 9.7 mg of DMT-d10 fumarate was weighed into a 20 mL headspace vial which was pre-calibrated to a final volume of 15 mL with a magnetic stir bar inside. The weighed API was returned to storage. On the morning of dosing, the weighed API was removed from storage and allowed to equilibrate to room temperature. 13.55 mL of vehicle (0.9% w/v saline) was added to the vial (equivalent to 90% of final volume) and set to magnetically stir for ca 35 minutes. Using a calibrated pH meter, the solution pH was measured. […] The solution was made to final volume of 15 mL, using the pre-calibrated line, with 0.9% w/v saline. The final pH was recorded as 5.53. The solution was then filtered using a […] PVDF syringe filter in the laminar air flow cabinet (LAFC). The visual appearance of the solution was recorded as a clear, colorless, homogenous solution. […] The control solution was protected from light at all times.
Formulation 28: On the morning of dosing, DMT-d10 fumarate was removed from storage (frozen, in a freezer set to maintain ≤−20° C., protected from light) and allowed to equilibrate to room temperature. Using a precision analytical balance, 11.02 mg of DMT-d10 fumarate was weighed into a 20 mL headspace vial containing a magnetic stir bar. 3.5 mL of WFI was added to the vial and set to stir, making a stock solution with a free base concentration of 2 mg/mL (nominal) DMT-d10. Once homogenous, 2 mL of the stock solution was dispensed into a vial containing 8 mL of 1.25% (w/v, nominal) sodium hyaluronate and vortex mixed until homogenous. […]

[9] = design: species or system male Beagle dogs; settings: dog, in vivo, sc
Procedure: as §1
Subcutaneous injections. The target dose was 0.1 mg/kg, free base at a dose concentration of 0.4 mg/mL. Appropriate volumes of dose were calculated per each animal based on real animal bodyweights and a target dose volume of 0.25 mL/kg. The volumes were pulled into plastic Troge 2.5 mL syringes. Animals were identified by microchip and tattoo. […]
Subcutaneous injections. […] Appropriate volumes of dose were calculated per each animal based on real animal bodyweights and a target dose volume of 0.25 mL/kg. […]
(§2) Subcutaneous injections. […] Appropriate volumes of dose were calculated per each animal based on real animal bodyweights and a target dose volume of 0.05 mL/kg or 0.25 mL/kg. […]
Subcutaneous injections. DMT+DMT-d10 were co-dosed (via Formulation 35) at 0.5 mg/kg/analyte, total dose of 1.0 mg/kg (free base), each at a dose concentration of 10 mg/mL (nominal), total dose concentration of 20 mg/mL (nominal) and a dose volume of 0.05 mL/kg calculated per each animal based on real animal bodyweights. […]

[10] = design: species or system male Beagle dogs; settings: dog, in vivo, sc, 1 mg/kg
Procedure: D: Dose Concentration and Dose Volume—Pharmacokinetics of DMT-d10 in Male Beagle Dogs Following Subcutaneous Administration at 1 mg/kg Formulated in Hyaluronic Acid Concentrations at Higher Dosing Solution Concentrations and Lower Dosing Volume
The objective of this study was to determine the effect of increasing the dosing solution concentration of DMT-d10 and decreasing the dose volume on the SC release of DMT-d10 into the systemic circulation. This study was conducted using the same CRO, housing, and materials as described above in part A. All conditions described in part A pertain to this study with the exceptions noted below.
Test Items. […]
[…]. Once homogeneous, the density was measured to be 1.000 g/cm^3. […] The visual appearance was recorded as a clear/yellowish homogenous solution at this stage. The pH was measured using a calibrated pH meter and recorded to be 3.24. […] The density was measured to be 1.012 g/cm^3. […]
[…]. The density of the resultant 0.8% (w/v, nominal) sodium hyaluronate solution was recorded to be 1.002 g/cm^3. […] The final visual appearance of the formulation was recorded as a clear, colorless, homogenous solution.
as §2

Compound: CN(C)CCc1c[nH]c2ccccc12 [DMT, 2-(1H-indol-3-yl)-N,N-dimethylethan-1-amine]
- therapeutically relevant psychedelic dose [1]: ≥ 70 mg
- agonism at the 5-HT2A receptor (5-HT2A receptor): potent agonist
- binding to sigma-1 receptor (sigma-1 receptor): binds to other receptors
- binding to 5-HT1A [2]: binds with affinity
- binding to TAARs [3]: binds to other receptors
- binding to SERT [4]: binds with affinity
- AUC(0-inf) (in vivo [5]): 48.7 ng·h/mL
- CL/F (in vivo [5]): 173 mL/min/kg
- Cmax (in vivo [5]): 58.1 ng/mL
- MRT inf (in vivo [5]): 52 min
- Tmax (in vivo [5]): 30 min
- half-life (in vivo [5]): 32 min
- Vd/F (in vivo [5]): 7.59 L/kg
- oral activity ([6]; in vivo, po): not orally active
- plasma concentrations quantifiable to [7]: ≤ 2 h
- binding to 5-HT2C (5-HT2C): binds with affinity
- binding to 5-HT2A (5-HT2A): binds with affinity

Compound: [2H]C([2H])([2H])N(C([2H])([2H])[2H])C([2H])([2H])C([2H])([2H])c1c[nH]c2ccccc12 [DMT-d10, 2-(1H-indol-3-yl)-N,N-bis(methyl-d3)ethan-1-amine-1,1,2,2-d4]
- dose proportionality of Cmax and AUCinf (in vivo [8]): increased in a dose proportional manner
- plasma DMT-d10 concentrations quantifiable up to (in vivo [8]): up to 4 hours
- MRT inf (in vivo [8]; sc): ~90 min
- Tmax (in vivo [8]; sc): 30 to 45 min
- half-life (in vivo [8]; sc): ~54 min
- plasma DMT-d10 concentrations quantifiable up to (in vivo [8]; sc): up to 4 hours
- AUC(0-inf) (in vivo [5]): 109 ng·h/mL
- CL/F (in vivo [5]): 77.5 mL/min/kg
- Cmax (in vivo [5]): 75.6 ng/mL
- MRT inf (in vivo [5]): 73.8 min
- Tmax (in vivo [5]): 30 min
- half-life (in vivo [5]): 43.3 min
- Vd/F (in vivo [5]): 4.73 L/kg
- decrease of apparent clearance (Cl/F) by deuteration [7]: 2.2 ×
- decrease of apparent volume of distribution (Vz/F) by deuteration [7]: 1.6 ×
- increase of AUCinf by deuteration [7]: 2.2 ×
- increase of Cmax by deuteration [7]: 1.3 ×
- increase of MRTinf by deuteration [7]: 1.4 ×
- increase of t1/2 by deuteration [7]: 1.4 ×
- plasma concentrations quantifiable to [7]: ≤ 4 h
- Vz/F (mean) ([7]; 0.5 mg/kg): 4.72 L/kg
- adverse reactions to the administration [9]: No adverse reactions
- clinical signs post-dose [9]: Mild, transient clinical signs
- plasma DMT-d10 concentrations quantifiable up to [10]: up to 4 hours

Compound: COc1ccc2[nH]cc(CCN(C)C)c2c1 [Formulation 5-MeO-DMT, 5-methoxy-N,N-dimethyltryptamine]
- oral bioavailability ([6]; oral): lacks oral bioavailability
